Assay results taken from patent US20160206543A1, “SYNERGISTIC COMPOSITIONS AND METHODS FOR MITIGATING SKIN IRRITATION AND ENHANCING SKIN BARRIER FUNCTION” (GOJO INDUSTRIES, INC., priority 2014, published 2016).

What was measured:
Format in all cases: cell-based, human
DSC3 = test: Cell-cell junction, qRT-PCR for desmocollin (DSC3); settings: keratinocytes treated overnight; KGM = 100
Text: (§1) Tight Junctions are the closely associated areas of two cells whose membranes join together forming a virtually impermeable barrier to fluid. A desmosome is a cell structure specialized for cell-to-cell adhesion. A type of junction complex, they are localized spot-like adhesions randomly arranged on the lateral sides of plasma membranes. Desmosomes are molecular complexes of cell adhesion proteins and linking proteins that attach the cell surface adhesion proteins to intracellular keratin cytoskeletal filaments.
(§2) The cell adhesion proteins of the desmosome, desmoglein (DSG) and desmocollin (DSC), are members of the cadherin family of cell adhesion molecules. They are biomarker of skin tight junctions. In particular, DSG1 is a biomarker for cell binding, the higher the expression, the better skin cell-cell junction and the better skin barrier function will be. DSC3 is a protein in humans that is encoded by the DSC3 gene, the higher the expression, the better skin cell-cell junction and the better skin barrier function will be.
(§3) In the present method, keratinocytes were treated with the sample compositions in a 6-well plate overnight. After washing with cold phosphate-buffered saline (PBS), total RNAs were prepared from each well. Real-Time Quantitative Reverse Transcription PCR (qRT-PCR) was performed to detect the target genes ([…]) expression level using a One-step TaqMan® RT-PCR kit (Life Technologies).
(§4) Samples containing various amounts of acetyl hexapeptide-38 and/or acetyl hexapeptide-46 were tested for cell-cell junction, as described above. Solution of Vitamin D3 and keratinocyte growth medium (KGM) were used for comparison. The results are summarized in Tables 3-4 below, and graphically represented in FIGS. 3-4. It can be seen that compositions containing acetyl hexapeptide-38 and/or acetyl hexapeptide-46 enhanced cell-cell junction when compared to Vitamin D3 and KGM.

DSG1 = test: Cell-cell junction, qRT-PCR for desmoglein (DSG1); settings: keratinocytes treated overnight; KGM = 100
Text: as §1, §2, §3, §4

IL-8 = IL-8 ELISA (Part 1, Quantikine kit), surfactant-induced irritation; settings: for IL-8 secreted: human dermal keratinocytes co-treated with surfactant mixture (sodium laureth sulfate + polyquaternium-10), Control B = 100%, Control A = 0%; for Reduction of IL-8 Secretion Compared to Control B: subtracting from 100% for Control B
Text: Interleukin 8 (IL-8) is a chemokine and proinflammatory cytokine produced by macrophages and other cell types such as epithelial cells. It is secreted from keratinocytes in skin in response to inflammatory stimuli. IL-8 is secreted and is an important mediator of the immune reaction in the innate immune system response. IL-8 overexpressed is a biomarker of skin irritation.
For Control A, human dermal keratinocytes are left untreated. No irritation is expected, and therefore Control A provides a baseline. For Control B, IL-8 is induced in human dermal keratinocytes by applying a surfactant mixture that is a combination of sodium laureth sulfate and polyquaternium-10. For all other samples, the human dermal keratinocytes are co-treated with the surfactant mixture and a composition containing the ingredient of interest. Decreased Il-8 expression reflects the ingredient's anti-irritation activity.
In order to carry out the test method, an assay kit was employed that was obtained from R&D Systems: Human CXCL8/IL-8 Quantikine ELISA Kit.
The following steps were followed: 1. Bring all reagents and samples to room temperature before use. 2. Prepare all reagents, standard dilutions, and samples. 3. Remove excess microplate strips from the plate frame, return them to the foil pouch containing the desiccant pack, and reseal. 4. Add 100 μL of Assay Diluent to each well. 5. Add 50 μL of Standard, control, or sample to each well. Cover with a plate sealer, and incubate at room temperature for 2 hours. 6. Aspirate each well and wash, repeating the process 3 times for a total of 4 washes. 7. Add 100 μL of Conjugate to each well. Cover with a new plate sealer, and incubate at room temperature for 1 hour. 8. Aspirate and wash 4 times. 9. Add 200 μL Substrate Solution to each well. Incubate at room temperature for 30 minutes, making sure to protect the wells from the light. 10. Add 50 μL of Stop Solution to each well. The liquid was removed from the well and, using a colorimeter, absorbance was measured at 450 nanometers (nm) within 30 minutes. Wavelength correction was set to 540 nm or 570 nm.
The samples were tested for IL-8 secretion as described in the test method above. That is, for Control A, human dermal keratinocytes were left untreated. For Control B, IL-8 a surfactant mixture that was a combination of sodium laureth sulfate and polyquaternium-10. For all other samples, the human dermal keratinocytes were co-treated with the surfactant mixture and a composition containing the ingredient of interest. Decreased 11-8 expression reflects the ingredient's anti-irritation activity. The results are summarized in Table 2 and shown graphically in FIG. 1.
The amount of the reduction in IL-8 secretion for the test samples (subtracting from 100% for Control B) is summarized in Table 2 and shown graphically in FIG. 2. It can be seen that the combination of acetyl hexapeptide-46 and acetyl hexapeptide-38 produce an enhanced reduction in IL-8 secretion, particularly for the higher concentrations.

APQ3 = test: Skin water channel biomarker: APQ3 expression; settings: FIG. 10
Text: FIG. 5 is a graphical representation of the effect of various compositions on the irritation response of cells treated with known irritants, as quantified by measuring IL-8 secretion, and on cell viability. FIG. 6 is a graphical representation of Involucrin Expression—Keratinocytes (KC) differentiation. FIG. 7 is a graphical representation of PPARδ expression—ceramides related biomarker. FIG. 8 is a graphical representation of ABCA12 expression—fatty acid related biomarker. FIG. 9 is a graphical representation of DSC1 expression—cell-cell junction biomarker. FIG. 10 is a graphical representation of APQ3 expression—skin water channel.
An in vitro model was employed, using monolayer human dermal keratinocytes culture (KGM). Two controls were tested: the medium and inflammatory cytokines interleukin (IL-1b).
Skin Barrier Biomarkers: ABCA12, Involucrin, PPARδ. Different concentrations of ingredients were used to treat the keratinocyte for 24 hours. Cells were collected and total RNA prepared from the treated cells. Real-time RT-PCT was used to detect different barrier function related biomarker's gene expression level. Comparative Benchmark: Vitamin D3 (cholecalciferol) in three different concentrations.

Compound | DSC3 % (DSC3) | IL-8 secreted (IL-8) | Reduction of IL-8 Secretion Compared to Control B (IL-8) | other results
C=C1CC[C@H](O)C/C1=C/C=C1\CCC[C@]2(C)[C@@H]([C@H](C)CCCC(C)C)CC[C@@H]12 [VitD3, cholecalciferol, reference compound] | 109% | – | – | DSG1 % (DSG1): 65%
Acetyl hexapeptide-38 [Example 3A] | 160% | – | – | –
Acetyl hexapeptide-38 [Example 3B] | 205% | – | – | DSG1 % (DSG1): 144%
Acetyl hexapeptide-38 [Example 3C] | 210% | – | – | DSG1 % (DSG1): 178%
Acetyl hexapeptide-46 [Example 3D] | 230% | – | – | –
Acetyl hexapeptide-46 [Example 3E] | 377% | – | – | DSG1 % (DSG1): 162%
Acetyl hexapeptide-46 [Example 3F] | 265% | – | – | DSG1 % (DSG1): 199%
acetyl hexapeptide-38 | – | – | – | effect on IL-8 secretion compared to Control B (in words) (IL-8): reduce the IL-8 secretion
acetyl hexapeptide-38 [Example 1A] | – | 69.60% | 30.40% | –
acetyl hexapeptide-38 [Example 1B] | – | 71.70% | 28.30% | –
acetyl hexapeptide-38 [Example 1C] | – | 84.90% | 15.10% | –
acetyl hexapeptide-38 [Example 1D] | – | 95.80% | 4.20% | –
acetyl hexapeptide-38 [Example 1G] | – | 57.20% | 42.80% | –
acetyl hexapeptide-46 | – | – | – | effect on IL-8 secretion compared to Control B (in words) (IL-8): reduce the IL-8 secretion; APQ3 expression in KC (in words) (APQ3): does not individually stimulate APQ3 expression
acetyl hexapeptide-46 [Example 2A] | – | 27.10% | 72.90% | –
acetyl hexapeptide-46 [Example 2B] | – | 50.90% | 49.10% | –
acetyl hexapeptide-46 [Example 2C] | – | 65.60% | 34.40% | –
acetyl hexapeptide-46 [Example 2D] | – | 78.20% | 21.80% | –
acetyl hexapeptide-46 [Example 2G] | – | −6.90% | 106.90% | –
